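Assay format: 96-well plates, 48-hour exposure. GI50 marks 50% less growth.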 The source made the active and inactive calls. Cut-off read from the data, not from the text of the source: active = GI50 up to about 1.1 µM and inactive = higher.
Tests used:
Assay in all cases: inhibition of tumour cell growth, NCI panel, 48 h
HCT-116 = system: HCT-116
HCC 2998 = system: HCC 2998
Malme-3M = system: Malme-3M
A549 = system: A549
UO-31 = system: UO-31
SNB-78 = system: SNB-78
EKVX = system: EKVX
NCI-H226 = system: NCI-H226
HT-29 = system: HT-29
K562 = system: K562
TK-10 = system: TK-10
DLD-1 = system: DLD-1
RPMI-8226 = system: RPMI-8226
NCI-H23 = system: NCI-H23
UACC-62 = system: UACC-62
MOLT-4 = system: MOLT-4
CAKI-1 = system: CAKI-1
SK-OV-3 = system: SK-OV-3
HL-60 = system: HL-60
HCT-15 = system: HCT-15
SW-620 = system: SW-620
OVCAR-8 = system: OVCAR-8
SF-268 = system: SF-268
XF498 = system: XF498
SF-295 = system: SF-295
SK-MEL-5 = system: SK-MEL-5
KM12 = system: KM12
HOP-92 = system: HOP-92
SNB-75 = system: SNB-75
SK-MEL-2 = system: SK-MEL-2
NCI-H522 = system: NCI-H522
SN12C = system: SN12C
SF-539 = system: SF-539
SR = system: SR
OVCAR-5 = system: OVCAR-5
CCRF-CEM = system: CCRF-CEM
A498 = system: A498
U-251 = system: U-251
HOP-62 = system: HOP-62
IGROV-1 = system: IGROV-1
NCI-H460 = system: NCI-H460
OVCAR-4 = system: OVCAR-4
786-0 = system: 786-0
LXFL 529 = system: LXFL 529
UACC-257 = system: UACC-257
M19-MEL = system: M19-MEL
SK-MEL-28 = system: SK-MEL-28
COLO 205 = system: COLO 205
LOX IMVI = system: LOX IMVI
M14 = system: M14
ACHN = system: ACHN
HOP-18 = system: HOP-18
DMS-273 = system: DMS-273
OVCAR-3 = system: OVCAR-3
KM-20L2 = system: KM-20L2
SNB-19 = system: SNB-19
RXF 393 = system: RXF 393

Measured: GI50

CCOC(=O)/C(=C/c1ccc(Cl)cc1)N(CC)CC
inactive: HCT-116 > 100 µM | HCC 2998 > 100 µM | Malme-3M > 100 µM | A549 90.4 µM | UO-31 > 100 µM | SNB-78 > 100 µM | EKVX > 100 µM | NCI-H226 > 100 µM | HT-29 > 100 µM | K562 > 100 µM | TK-10 > 100 µM | DLD-1 > 100 µM | RPMI-8226 > 100 µM | NCI-H23 > 100 µM | UACC-62 > 100 µM | MOLT-4 > 100 µM | CAKI-1 > 100 µM | SK-OV-3 > 100 µM | HL-60 > 100 µM | SW-620 > 100 µM | OVCAR-8 > 100 µM | SF-268 > 100 µM | XF498 > 100 µM | SF-295 > 100 µM | SK-MEL-5 > 100 µM | KM12 > 100 µM | HOP-92 74.1 µM | SNB-75 > 100 µM | SK-MEL-2 > 100 µM | NCI-H522 89.1 µM | SN12C > 100 µM | SF-539 > 100 µM | SR > 100 µM | OVCAR-5 > 100 µM | CCRF-CEM > 100 µM | A498 > 100 µM | U-251 > 100 µM | HOP-62 > 100 µM | IGROV-1 > 100 µM | NCI-H460 > 100 µM | OVCAR-4 > 100 µM | 786-0 > 100 µM | LXFL 529 > 100 µM | UACC-257 > 100 µM | M19-MEL > 100 µM | SK-MEL-28 > 100 µM | COLO 205 > 100 µM | LOX IMVI > 100 µM | M14 > 100 µM | ACHN > 100 µM | HOP-18 > 100 µM
> 100 µM: HCT-15

CC1=C(C(=O)CC(=O)C(=O)Nc2ccccc2C)Sc2ccccc2N1
> 100 µM: HCT-15
inactive: HCT-116 > 40.6 µM | HCC 2998 > 74.3 µM | Malme-3M > 100 µM | A549 > 69.3 µM | UO-31 > 100 µM | SNB-78 > 100 µM | EKVX > 100 µM | DMS-273 > 100 µM | NCI-H226 > 100 µM | HT-29 > 100 µM | K562 > 56.9 µM | TK-10 > 100 µM | DLD-1 > 45.8 µM | RPMI-8226 > 45 µM | NCI-H23 > 100 µM | UACC-62 > 100 µM | MOLT-4 > 100 µM | CAKI-1 > 100 µM | SK-OV-3 > 100 µM | HL-60 > 60.5 µM | SW-620 > 39.3 µM | OVCAR-8 > 100 µM | OVCAR-3 > 100 µM | SF-268 > 67 µM | SF-295 > 100 µM | SK-MEL-5 > 100 µM | KM12 > 100 µM | HOP-92 > 67.9 µM | SNB-75 > 53.8 µM | SK-MEL-2 > 100 µM | KM-20L2 > 81.3 µM | NCI-H522 > 55 µM | SN12C > 100 µM | SF-539 > 93.3 µM | SR > 100 µM | OVCAR-5 > 100 µM | CCRF-CEM > 57.1 µM | A498 > 100 µM | U-251 > 61.2 µM | HOP-62 > 100 µM | IGROV-1 > 100 µM | NCI-H460 > 40.4 µM | OVCAR-4 > 100 µM | SNB-19 > 100 µM | 786-0 > 45.5 µM | RXF 393 > 57.4 µM | UACC-257 > 100 µM | M19-MEL > 100 µM | SK-MEL-28 > 100 µM | COLO 205 > 42.7 µM | LOX IMVI > 42.4 µM | M14 > 100 µM | ACHN > 100 µM | HOP-18 > 100 µM

— ChEMBL document CHEMBL1201862, “PubChem BioAssay data set” (2004)
